Source: patent EP3822637A1, “METHOD FOR DETERMINING PARP INHIBITOR RESPONSIVENESS AND IMPROVING PARP INHIBITOR THERAPY” (Universität Zürich, priority 2019, dated 2021)
“Also recorded” adds a separate entry of the source. One block for each compound: values may come before it.

Experiments:
[1] = system: PARP1; test: PARP1 protein levels in treated cells (Western blot / high-content microscopy); details: U-2 OS cancer cells; Fig. 16c
Method: Images were analyzed with the inbuilt Olympus ScanR Image Analysis Software Version 3.0.1, a dynamic background correction was applied, and nuclei segmentation was performed using an integrated intensity-based object detection module based on the DAPI signal. All downstream analyses were focused on properly detected nuclei containing a 2C-4C DNA content as measured by total and mean DAPI intensities. Fluorescence intensities were quantified and are depicted as arbitrary units. Color-coded scatter plots of asynchronous cell populations were generated with Spotfire data visualization software (TIBCO) and GraphPad Prism 8.0 was used for depicting data as violin plots. Within one experiment, similar cell numbers were compared for the different conditions. […] Representative scatter plots and quantifications of independent experiments, typically containing several thousand cells each, are shown. […]

[2] = molecular target: Smurf2 (Homo sapiens, UniProt Q9HAU4); details: cited from earlier work
[3] = molecular target: T1, TRIP12 (Homo sapiens, UniProt Q14669); test: In vivo ubiquitin ligase activity assay in cells (GFP-TRIP12 and HA-ubiquitin over-expressed, immunoprecipitation); format: cell-based; details: GFP-TRIP12 immunoprecipitated and probed for HA-ubiquitin; Fig. 16b
T1 construct: The full-length TRIP12 (TRIP12-203, transcript ENST 00000389044.8) was cloned into the pAc-GFP1-C1 (Clontech) vector; expressed in transfected cells
Method: HEK293T or U-2 OS cells transfected with the indicated plasmids and siRNAs were washed twice with cold PBS and directly lysed on ice with RIPA buffer (50 mM Tris- HCI pH 8.0, 150 mM NaCl, 1% Igepal CA630, 0.1% SDS, 0.1% Na-deoxycholic acid), supplemented with 2 mM MgCl2, cOmplete inhibitor cocktail (Roche), phosphoSTOP (Roche), 25 U/ml benzonase, 1 mM phenylmethylsulfonylfluoride (PMSF), and 10 mM N-ethylmaleimide (NEM). Lysates were incubated for 5 minutes at room temperature and then centrifuged at 15'000 x g for 15 minutes. […] Beads were collected by centrifugation, washed four times with RIPA buffer and eluted by boiling in 10x SDS-PAGE sample buffer. Samples were subjected to SDS-PAGE for immunoblotting.

[4] = molecular target: T2, Nedd4 (Homo sapiens, UniProt P46934); details: cited from earlier work
T2 sequence (P46934 1-1319): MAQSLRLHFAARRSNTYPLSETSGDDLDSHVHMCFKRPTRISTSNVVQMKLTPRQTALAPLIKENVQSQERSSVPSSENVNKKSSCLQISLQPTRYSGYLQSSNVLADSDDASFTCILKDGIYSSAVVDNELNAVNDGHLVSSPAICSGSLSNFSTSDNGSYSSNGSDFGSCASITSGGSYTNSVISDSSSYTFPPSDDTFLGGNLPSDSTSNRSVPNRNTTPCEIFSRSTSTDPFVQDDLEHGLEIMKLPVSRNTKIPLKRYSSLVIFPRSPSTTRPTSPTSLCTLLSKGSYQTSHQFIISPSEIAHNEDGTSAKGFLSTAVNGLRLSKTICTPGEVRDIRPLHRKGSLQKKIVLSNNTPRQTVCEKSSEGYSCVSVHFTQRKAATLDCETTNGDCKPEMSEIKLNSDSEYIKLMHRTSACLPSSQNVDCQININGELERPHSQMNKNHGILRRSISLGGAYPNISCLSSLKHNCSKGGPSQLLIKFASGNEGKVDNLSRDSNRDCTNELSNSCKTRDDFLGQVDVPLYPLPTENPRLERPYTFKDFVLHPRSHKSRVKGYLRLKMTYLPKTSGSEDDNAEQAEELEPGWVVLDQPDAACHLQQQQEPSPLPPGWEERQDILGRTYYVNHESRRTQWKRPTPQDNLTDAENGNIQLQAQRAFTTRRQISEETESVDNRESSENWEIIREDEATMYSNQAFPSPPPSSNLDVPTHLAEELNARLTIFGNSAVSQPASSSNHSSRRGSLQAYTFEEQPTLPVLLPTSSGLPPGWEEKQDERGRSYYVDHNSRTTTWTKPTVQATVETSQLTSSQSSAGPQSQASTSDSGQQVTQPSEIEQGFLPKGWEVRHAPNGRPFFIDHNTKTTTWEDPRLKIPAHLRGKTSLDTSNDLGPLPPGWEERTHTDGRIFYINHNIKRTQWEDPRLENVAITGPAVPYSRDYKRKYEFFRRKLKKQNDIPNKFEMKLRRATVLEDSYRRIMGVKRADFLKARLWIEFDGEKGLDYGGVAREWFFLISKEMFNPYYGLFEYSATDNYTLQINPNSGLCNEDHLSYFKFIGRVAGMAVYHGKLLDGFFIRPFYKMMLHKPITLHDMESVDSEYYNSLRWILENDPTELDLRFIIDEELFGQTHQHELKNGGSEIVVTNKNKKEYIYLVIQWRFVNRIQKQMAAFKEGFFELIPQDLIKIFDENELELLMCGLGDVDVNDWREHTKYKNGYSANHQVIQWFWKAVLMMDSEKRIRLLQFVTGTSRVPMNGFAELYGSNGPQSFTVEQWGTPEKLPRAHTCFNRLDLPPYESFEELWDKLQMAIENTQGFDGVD

[5] = system: cancer cells; test: Clonogenic survival assay, Heclin combined with PARPi; format: cell-based; details: Heclin combined with PARP inhibitor Olaparib; Fig. 16d
Method: Cells transfected with the indicated siRNAs were seeded at single cell density and exposed to PARPi at the indicated final concentration. All conditions were performed in triplicates. Cells were then incubated for 10 days and the number of colonies with more than 50 cells was counted after staining with crystal violet (0.5% crystal violet in 20% ethanol). GraphPad Prism was used to display clonogenic survival data.

[6] = molecular target: WWP2 (Homo sapiens, UniProt O00308); details: cited from earlier work
[7] = molecular target: T1, TRIP12; test: In vitro ubiquitin ligase activity assay (TRIP12 auto-ubiquitylation, with and without PAR chains); format: biochemical; details: absence and presence of PAR chains; Fig. 16a
Method: HEK293T cells were transfected with plasmids encoding FLAG-TRIP12 WT or the point mutants R869A or C2034A. Cells were lysed in TNE buffer (50 mM Tris-HCI pH 8.0, 150 mM NaCl, 0,1% Igepal CA630, 1 mM EDTA) supplemented with 2 mM MgCl2, cOmplete inhibitor cocktail (Roche), phosphoSTOP (Roche) and 25 U/ml benzonase. One milligram of protein lysates was immunoprecipitated using protein G- sepharose (GE Heltcare) coupled to 1 µl of anti-FLAG antibody for 3 hours at 4°C. After four washes with IP buffer the beads were first equilibrated in TE buffer (50 mM Tris-HCI pH 8.0, 150 mM NaCl) supplemented with cOmplete inhibitor cocktail (Roche), 1 mM PMSF, and then re-suspended in 5 volumes of TE buffer with 0.3 mg/ml FLAG peptide (3x FLAG peptide, Sigma) for 1 hour at 4°C at low rpm. Samples were then centrifuged at 100 x g for two minutes and the supernatant containing the eluted protein was stored at -80°C.
Auto-PARylated PARP1 was bound to histidine beads (ProBond) for 45 minutes at 4°C. The beads were then equilibrated in reaction buffer (25 mM Tris-HCI pH 7.4, 100 mM NaCl) and equally distributed in reaction tubes. […]

[8] = system: BRCA-proficient cancer cells; test: Clonogenic survival (colony formation) assay with PARPi after siRNA down-regulation of TRIP12; format: cell-based, Human; details: siRNA against TRIP12; increasing doses of PARPi; 10 days; rescued by PARP1 co-depletion; Fig. 6a-d, 12a-c
Method: Human U-2 OS cells (ATCC), RPE-1 (ATCC), HEK293T (ATCC), MCF-7 (kindly provided by Ross Chapman), MDA-MB-436 (kindly provided by Michael Hottiger), U-2 OS PARP1 KO cells (kindly provided by Keith Caldecott) and HeLa Kyoto PARP1-LAP cells stably expressing EGFP-tagged PARP1 from its natural promoter (kindly provided by Stoyno S. Stoynov) were grown under standard sterile cell culture conditions (37°C, humidified atmosphere, 5% CO2) in Dulbecco's modified Eagle's medium (DMEM, Thermo Fisher Scientific) containing 10% fetal bovine serum (GIBCO) and 1% of penicillin-streptomycin antibiotics. HCC1143 cells (kindly provided by Mohamed Bentires-Alj) were grown in RPMI-1640 medium (Thermo Fisher Scientific) containing 10% fetal bovine serum (GIBCO) and 1% penicillin- streptomycin antibiotics. SUM149PT (generated by the Ethier laboratory; available at http://www.bioivt.com/ and kindly provided by Alessandro Sartori) were grown in Ham's F-12 medium (Thermo Fisher Scientific) containing 10% fetal bovine serum and 1% of penicillin-streptomycin antibiotics. All cultured cells were routinely tested for mycoplasma contamination and assessed by quantitative image-based cytometry (QIBC) for proper proliferation and absence of abnormal stress signals. […] Transfections with siRNAs were performed for 72h, unless stated otherwise, with Ambion Silencer Select siRNA using Lipofectamine RNAi/MAX (Thermo Fisher Scientific). For individual transfections the siRNAs were used at a final concentration of 25nM. When multiple siRNAs were combined, the final concentration was kept constant in all samples of an experiment. The following Ambion Silencer Select siRNAs were used: TRIP12 (s17808, s17809, s17810), PARP1 (s1098), DTX1 (s4355, s4356), DTX2 (s41519, s223231), DTX4 (s23319, s23321), HUWE1 (s19596, s19597), RNF146 (s37821, s37822). […] Cells were then incubated for 10 days and the number of colonies with more than 50 cells was counted after staining with crystal violet (0.5% crystal violet in 20% ethanol). […]

T1 sequence (Q14669 with tags, fused parts or gaps): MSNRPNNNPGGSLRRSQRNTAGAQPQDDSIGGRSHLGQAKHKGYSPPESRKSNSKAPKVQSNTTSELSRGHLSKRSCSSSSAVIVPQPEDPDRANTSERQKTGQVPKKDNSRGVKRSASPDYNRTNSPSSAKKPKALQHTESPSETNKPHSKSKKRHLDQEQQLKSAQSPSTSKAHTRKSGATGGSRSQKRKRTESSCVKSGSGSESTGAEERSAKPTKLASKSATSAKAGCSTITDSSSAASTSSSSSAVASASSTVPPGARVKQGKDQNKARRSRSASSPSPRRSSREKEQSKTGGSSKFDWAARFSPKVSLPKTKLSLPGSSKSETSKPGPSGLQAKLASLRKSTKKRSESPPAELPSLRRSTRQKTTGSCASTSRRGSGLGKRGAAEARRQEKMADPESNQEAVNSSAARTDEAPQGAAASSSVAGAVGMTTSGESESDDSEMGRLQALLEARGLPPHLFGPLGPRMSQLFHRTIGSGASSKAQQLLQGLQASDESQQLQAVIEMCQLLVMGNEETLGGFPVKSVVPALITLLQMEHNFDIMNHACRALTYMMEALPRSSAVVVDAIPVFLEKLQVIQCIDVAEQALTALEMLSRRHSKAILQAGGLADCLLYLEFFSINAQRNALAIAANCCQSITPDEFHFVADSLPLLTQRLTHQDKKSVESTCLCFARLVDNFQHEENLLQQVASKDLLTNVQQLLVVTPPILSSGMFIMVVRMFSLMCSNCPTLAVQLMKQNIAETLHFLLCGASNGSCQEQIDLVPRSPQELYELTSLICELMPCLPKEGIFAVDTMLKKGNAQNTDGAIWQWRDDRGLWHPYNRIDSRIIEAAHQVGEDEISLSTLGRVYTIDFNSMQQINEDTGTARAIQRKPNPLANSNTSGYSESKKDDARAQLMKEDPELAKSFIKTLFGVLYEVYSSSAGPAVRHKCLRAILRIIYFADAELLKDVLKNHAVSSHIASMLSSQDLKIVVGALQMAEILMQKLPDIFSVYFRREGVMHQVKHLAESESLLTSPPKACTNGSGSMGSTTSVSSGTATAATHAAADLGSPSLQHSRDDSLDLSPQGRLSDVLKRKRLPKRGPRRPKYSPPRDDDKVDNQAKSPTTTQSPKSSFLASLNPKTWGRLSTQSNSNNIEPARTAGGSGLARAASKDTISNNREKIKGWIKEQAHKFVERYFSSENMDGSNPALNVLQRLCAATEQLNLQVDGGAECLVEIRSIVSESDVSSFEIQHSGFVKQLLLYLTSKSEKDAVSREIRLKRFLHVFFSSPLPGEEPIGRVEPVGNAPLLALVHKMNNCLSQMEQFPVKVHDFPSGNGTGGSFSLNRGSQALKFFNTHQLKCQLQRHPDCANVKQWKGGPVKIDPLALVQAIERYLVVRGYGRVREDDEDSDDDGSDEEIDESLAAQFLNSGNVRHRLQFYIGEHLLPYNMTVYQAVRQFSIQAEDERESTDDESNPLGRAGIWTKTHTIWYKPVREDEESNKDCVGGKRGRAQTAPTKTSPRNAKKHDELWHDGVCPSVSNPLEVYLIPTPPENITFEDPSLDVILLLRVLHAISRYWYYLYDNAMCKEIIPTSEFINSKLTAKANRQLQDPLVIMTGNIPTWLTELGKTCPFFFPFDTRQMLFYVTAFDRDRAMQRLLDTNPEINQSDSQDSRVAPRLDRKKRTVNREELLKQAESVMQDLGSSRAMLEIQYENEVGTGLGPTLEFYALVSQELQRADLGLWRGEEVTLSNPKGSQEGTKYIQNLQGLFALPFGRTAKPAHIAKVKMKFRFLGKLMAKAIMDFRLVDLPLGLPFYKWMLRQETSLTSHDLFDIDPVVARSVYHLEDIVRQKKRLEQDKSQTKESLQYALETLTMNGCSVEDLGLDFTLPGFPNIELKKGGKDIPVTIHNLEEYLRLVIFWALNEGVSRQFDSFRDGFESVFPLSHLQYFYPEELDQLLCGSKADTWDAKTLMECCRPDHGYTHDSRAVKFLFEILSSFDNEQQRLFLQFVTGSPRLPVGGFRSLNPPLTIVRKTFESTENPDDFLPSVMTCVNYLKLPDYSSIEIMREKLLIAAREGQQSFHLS
Sequence of Smurf2 (Q9HAU4 whole entry, species assumed): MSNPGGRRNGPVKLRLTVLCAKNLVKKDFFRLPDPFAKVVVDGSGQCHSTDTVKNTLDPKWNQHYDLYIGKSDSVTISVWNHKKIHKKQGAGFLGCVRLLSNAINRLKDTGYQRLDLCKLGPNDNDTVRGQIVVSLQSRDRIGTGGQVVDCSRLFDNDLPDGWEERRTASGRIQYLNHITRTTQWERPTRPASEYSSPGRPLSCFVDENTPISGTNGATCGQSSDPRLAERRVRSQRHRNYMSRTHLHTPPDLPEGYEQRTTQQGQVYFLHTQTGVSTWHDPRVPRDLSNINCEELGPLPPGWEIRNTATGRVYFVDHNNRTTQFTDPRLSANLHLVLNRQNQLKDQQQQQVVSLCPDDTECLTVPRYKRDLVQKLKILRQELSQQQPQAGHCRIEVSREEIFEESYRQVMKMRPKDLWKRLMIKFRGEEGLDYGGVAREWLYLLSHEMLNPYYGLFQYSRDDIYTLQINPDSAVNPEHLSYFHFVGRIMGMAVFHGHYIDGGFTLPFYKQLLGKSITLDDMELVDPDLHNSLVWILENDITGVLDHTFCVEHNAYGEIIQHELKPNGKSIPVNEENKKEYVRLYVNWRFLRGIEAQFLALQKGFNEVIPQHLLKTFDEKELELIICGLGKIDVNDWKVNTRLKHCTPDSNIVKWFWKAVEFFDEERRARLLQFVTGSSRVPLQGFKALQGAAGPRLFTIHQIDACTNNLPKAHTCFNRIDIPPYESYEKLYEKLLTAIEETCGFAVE
Sequence of WWP2 (O00308 whole entry, species assumed): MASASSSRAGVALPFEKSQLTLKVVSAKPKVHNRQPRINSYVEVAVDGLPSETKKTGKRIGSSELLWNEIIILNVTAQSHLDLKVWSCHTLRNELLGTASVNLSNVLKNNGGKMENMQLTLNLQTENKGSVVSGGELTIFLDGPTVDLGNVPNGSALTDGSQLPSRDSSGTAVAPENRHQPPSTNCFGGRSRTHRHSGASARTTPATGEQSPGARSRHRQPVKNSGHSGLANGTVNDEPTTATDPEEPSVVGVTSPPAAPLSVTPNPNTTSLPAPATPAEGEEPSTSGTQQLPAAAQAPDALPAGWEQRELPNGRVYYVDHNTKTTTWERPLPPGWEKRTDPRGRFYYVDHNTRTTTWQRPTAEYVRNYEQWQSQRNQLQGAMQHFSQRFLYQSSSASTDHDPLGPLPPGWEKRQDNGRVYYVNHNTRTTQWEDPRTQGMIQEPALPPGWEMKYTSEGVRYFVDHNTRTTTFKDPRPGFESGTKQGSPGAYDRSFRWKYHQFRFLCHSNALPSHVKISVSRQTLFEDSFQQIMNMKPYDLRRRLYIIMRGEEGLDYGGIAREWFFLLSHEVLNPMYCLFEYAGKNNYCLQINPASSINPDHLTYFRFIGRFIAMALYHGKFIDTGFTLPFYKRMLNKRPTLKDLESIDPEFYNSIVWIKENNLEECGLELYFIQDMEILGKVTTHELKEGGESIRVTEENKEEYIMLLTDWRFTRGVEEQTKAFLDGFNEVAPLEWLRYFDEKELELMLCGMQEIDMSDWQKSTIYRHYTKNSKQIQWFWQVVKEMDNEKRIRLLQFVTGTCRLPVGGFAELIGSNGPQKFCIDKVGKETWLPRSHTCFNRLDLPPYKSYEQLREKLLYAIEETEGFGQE

TRIP12 activity in vivo [3]: inhibited
TRIP12 activity in vitro [7]: inhibited
Compound: CCc1ccc(C=CC(=O)Nc2ccc(C(C)=O)cc2)o1 [Heclin, N-(4-Acetylphenyl)-3-(5-ethyl-2-furanyl)-2-propenamide]
PARP1 levels upon Heclin treatment of cells [1]: stabilizes PARP1 in U-2 OS cancer cells in a time- and dose-dependent manner; also recorded: elevated PARP1 levels, in a time- and dose-dependent manner
inhibition of ubiquitin ligase Smurf2 [2]: inhibit
inhibition of ubiquitin ligase Nedd4 [4]: inhibit
sensitization of cancer cells to PARPi in clonogenic survival assays [5]: synergizes with the PARP inhibitor Olaparib to kill cancer cells; also recorded: sensitized cancer cells to PARPi
inhibition of ubiquitin ligase WWP2 [6]: inhibit

Compound: O=C(c1cc(Cc2n[nH]c(=O)c3ccccc23)ccc1F)N1CCN(C(=O)C2CC2)CC1 [Olaparib]
clonogenic survival upon PARPi exposure after TRIP12 down-regulation [8]: greatly sensitized

Compound: CNCc1ccc(-c2[nH]c3cc(F)cc4c3c2CCNC4=O)cc1 [Rucaparib]
clonogenic survival upon PARPi exposure after TRIP12 down-regulation [8]: Very similar results

Compound: Cn1ncnc1[C@H]1c2n[nH]c(=O)c3cc(F)cc(c23)N[C@@H]1c1ccc(F)cc1 [Talazoparib]
clonogenic survival upon PARPi exposure after TRIP12 down-regulation [8]: Very similar results
